Test results reported in publication PMC7503225, “Repositioning Dequalinium as Potent Muscarinic Allosteric Ligand by Combining Virtual Screening Campaigns and Experimental Binding Assays” (International Journal of Molecular Sciences, 2020).
Like-named read-outs stand apart in the source and are kept apart here.

Assays:
[1] = ref DrugBank [16]; cited from earlier work
[2] = molecular target: T1, hM4 muscarinic receptor (Homo sapiens, UniProt P08173); test: Equilibrium inhibition binding with [3H]-NMS, CHO cell membranes
T1 construct: expressed in transfected cells; host or cells: CHO cells, stably transfected; membrane fractions
T1 sequence (P08173 1-479): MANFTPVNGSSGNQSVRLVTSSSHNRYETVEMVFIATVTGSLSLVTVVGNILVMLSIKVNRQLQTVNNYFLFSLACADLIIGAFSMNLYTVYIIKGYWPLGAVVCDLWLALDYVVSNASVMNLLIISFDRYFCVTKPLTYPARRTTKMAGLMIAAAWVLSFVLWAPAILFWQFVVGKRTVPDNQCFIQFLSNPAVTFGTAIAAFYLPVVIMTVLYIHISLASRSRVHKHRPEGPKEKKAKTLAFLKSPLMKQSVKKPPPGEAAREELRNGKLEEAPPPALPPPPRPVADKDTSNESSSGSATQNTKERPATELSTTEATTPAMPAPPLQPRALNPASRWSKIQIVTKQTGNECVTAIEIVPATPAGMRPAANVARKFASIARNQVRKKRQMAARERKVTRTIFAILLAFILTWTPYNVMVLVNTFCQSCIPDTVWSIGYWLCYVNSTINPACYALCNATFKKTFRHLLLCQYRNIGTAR
Protocol: (§1) All tested compounds were purchased from Merck KGaA (Darmstadt, Germany). The radioligand binding experiments were performed with membranes from Chinese Hamster Ovary (CHO) cells stably transfected with the five cloned human muscarinic receptor subtypes (hM1-5). Membrane fractions were prepared according to the protocol, which have been previously described; membranes were stored at −80 °C until use. Nonspecific binding was defined by the radioactivity bound in the presence of 10 µM atropine.
(§2) Aliquots of membranes (25–70 µg/mL) were added and incubated for 2 h at room temperature, filtered through UniFilter GF/B plates (PerkinElmer Life and Analytical Science, Monza, Italy) using a FilterMate cell harvester (PerkinElmer Life and Analytical Science, Monza, Italy). The filters were washed several times with ice-cold MilliQ water. Then, the plates were counted in a β-counter (TopCount NXT microplate scintillation counter, PerkinElmer Life and Analytical Science, Monza, Italy).
(§3) Data points from radioligand inhibition binding curve were fitted to models using nonlinear regression equation to determine inhibitor potency (IC50) estimates, which were then converted to Ki values as appropriate.
(§4) All the results are expressed as means ± SEM obtained from 3-4 independent experiments each one performed in duplicate.

[3] = molecular target: T2, hM5 muscarinic receptor (Homo sapiens, UniProt P08912); test: as above
T2 construct: expressed in transfected cells; host or cells: CHO cells, stably transfected; membrane fractions
T2 sequence (P08912 1-532): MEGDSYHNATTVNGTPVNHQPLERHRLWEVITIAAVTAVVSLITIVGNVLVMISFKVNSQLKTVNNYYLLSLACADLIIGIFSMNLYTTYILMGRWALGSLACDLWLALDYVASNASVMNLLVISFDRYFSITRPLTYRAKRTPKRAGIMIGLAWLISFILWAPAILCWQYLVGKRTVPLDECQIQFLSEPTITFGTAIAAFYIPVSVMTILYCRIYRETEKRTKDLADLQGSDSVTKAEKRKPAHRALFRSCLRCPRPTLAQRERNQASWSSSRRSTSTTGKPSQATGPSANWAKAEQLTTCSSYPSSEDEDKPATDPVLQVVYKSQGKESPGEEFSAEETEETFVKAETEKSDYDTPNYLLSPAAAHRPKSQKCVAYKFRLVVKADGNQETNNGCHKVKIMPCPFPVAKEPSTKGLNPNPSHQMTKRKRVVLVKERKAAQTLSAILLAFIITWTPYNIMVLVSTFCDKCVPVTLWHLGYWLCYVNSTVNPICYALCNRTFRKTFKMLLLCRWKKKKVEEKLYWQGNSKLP
Protocol: as §1, §2, §3, §4

[4] = molecular target: five human muscarinic receptors subtypes (hM1–hM5); test: Equilibrium binding, summary statements over the five subtypes
Protocol: as §1, §2, §3, §4

[5] = molecular target: T3, hM3 muscarinic receptor (Homo sapiens, UniProt P20309); test: Equilibrium inhibition binding with [3H]-NMS, CHO cell membranes; details: [3H]-NMS 0.2 nM, mean ± SEM of 3-4 experiments, read-out: pKi hM3 (converted)
T3 construct: expressed in transfected cells; host or cells: CHO cells, stably transfected; membrane fractions
T3 sequence (P20309 whole entry): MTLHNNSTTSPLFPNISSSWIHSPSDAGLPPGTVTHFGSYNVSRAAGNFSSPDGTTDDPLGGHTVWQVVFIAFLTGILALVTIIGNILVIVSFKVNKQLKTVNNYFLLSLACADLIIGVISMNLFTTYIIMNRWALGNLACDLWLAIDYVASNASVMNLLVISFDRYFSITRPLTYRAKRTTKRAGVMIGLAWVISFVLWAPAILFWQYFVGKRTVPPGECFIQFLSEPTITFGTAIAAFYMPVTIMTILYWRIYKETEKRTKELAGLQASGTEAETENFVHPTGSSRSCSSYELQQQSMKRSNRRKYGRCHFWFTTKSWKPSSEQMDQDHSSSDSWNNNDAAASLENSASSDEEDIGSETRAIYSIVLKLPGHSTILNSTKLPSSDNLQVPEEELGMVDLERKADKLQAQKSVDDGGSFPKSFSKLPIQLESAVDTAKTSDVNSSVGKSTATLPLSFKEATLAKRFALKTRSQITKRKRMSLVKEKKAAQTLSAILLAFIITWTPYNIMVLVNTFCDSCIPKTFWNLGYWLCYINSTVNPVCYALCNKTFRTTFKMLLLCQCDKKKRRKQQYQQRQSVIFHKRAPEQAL
Protocol: as §1, §2, §3, §4

[6] = molecular target: T4, hM1 muscarinic receptor (Homo sapiens, UniProt P11229); test: as above; details: [3H]-NMS 0.2 nM, mean ± SEM of 3-4 experiments, read-out: pKi hM1 (converted)
T4 construct: expressed in transfected cells; host or cells: CHO cells, stably transfected; membrane fractions
T4 sequence (P11229 1-460): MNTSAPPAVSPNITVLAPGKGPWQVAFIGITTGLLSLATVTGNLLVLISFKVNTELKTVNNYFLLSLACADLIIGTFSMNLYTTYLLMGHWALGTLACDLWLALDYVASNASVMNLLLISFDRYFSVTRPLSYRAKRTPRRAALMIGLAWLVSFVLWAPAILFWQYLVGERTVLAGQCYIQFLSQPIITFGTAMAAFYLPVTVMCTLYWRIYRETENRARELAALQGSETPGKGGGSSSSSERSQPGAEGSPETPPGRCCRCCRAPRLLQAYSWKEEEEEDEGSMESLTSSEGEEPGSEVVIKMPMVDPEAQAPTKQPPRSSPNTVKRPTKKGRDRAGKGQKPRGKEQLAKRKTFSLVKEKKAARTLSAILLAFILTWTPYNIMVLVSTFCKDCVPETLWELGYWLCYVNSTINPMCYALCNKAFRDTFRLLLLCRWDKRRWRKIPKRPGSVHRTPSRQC
Protocol: as §1, §2, §3, §4

[7] = molecular target: T5, hM2 muscarinic receptor (Homo sapiens, UniProt P08172); test: as above; details: [3H]-NMS 0.2 nM, mean ± SEM of 3-4 experiments, read-out: pKi hM2 (converted)
T5 construct: expressed in transfected cells; host or cells: CHO cells, stably transfected; membrane fractions
T5 sequence (P08172 1-466): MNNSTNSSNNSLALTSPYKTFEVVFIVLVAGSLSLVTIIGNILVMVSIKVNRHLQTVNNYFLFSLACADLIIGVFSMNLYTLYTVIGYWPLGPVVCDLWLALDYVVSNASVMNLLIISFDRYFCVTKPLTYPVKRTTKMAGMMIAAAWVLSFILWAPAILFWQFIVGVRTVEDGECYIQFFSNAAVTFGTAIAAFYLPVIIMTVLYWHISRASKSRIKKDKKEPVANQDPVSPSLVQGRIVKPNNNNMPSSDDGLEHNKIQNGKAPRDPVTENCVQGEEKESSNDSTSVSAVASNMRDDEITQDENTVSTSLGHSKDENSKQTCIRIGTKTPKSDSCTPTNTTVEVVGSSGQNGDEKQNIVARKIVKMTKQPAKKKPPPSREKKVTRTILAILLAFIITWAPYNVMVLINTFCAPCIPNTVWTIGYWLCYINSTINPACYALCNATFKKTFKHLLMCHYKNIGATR
Protocol: as §1, §2, §3, §4

[8] = molecular target: T6, [3H]-NMS-occupied muscarinic hM2 subtype (Homo sapiens, UniProt P08172); test: One point kinetic (off-rate) assay of [3H]-NMS dissociation; type: binding; details: for Kd: read-out: Log Kocc hM2 (converted)
T6 construct: expressed in transfected cells; host or cells: CHO cells, stably transfected; membrane fractions
T6 sequence (P08172 1-466): T5 sequence (P08172 1-466)
Protocol: as §1
Off-rate assays were performed as described elsewhere to estimate the affinity of the ligands for the [^3H]-NMS-occupied receptor (log Kocc). Briefly, a high concentration of membranes (about 0.1 mg/mL) was incubated with a high concentration of [^3H]-NMS (2 nM) for 60 min at room temperature (mix membrane). Next, 100 µL aliquots were distributed into polypropylene tubes that were empty or in a final volume of 1 mL binding buffer with 1 µM atropine alone and in the presence of a range of concentrations of tested compound (1 nM–0.1 mM).
The effect on the radioligand dissociation of each tested ligand was determined at 0 min and at one time point, which was chosen to be ca 2.5 dissociation half-lives of [^3H]-NMS alone from each subtype receptors. Later (80 min for hM1, 20 min for hM2 and 70 min for hM5), the samples were filtered and counted as previously reported. Non specific binding was measured as previously reported.
as §4

[9] = [3H]-NMS 0.2 nM, CHO membranes, mean ± SEM of 3-4 experiments, read-out: pKi hM4 (converted)
[10] = [3H]-NMS 0.2 nM, CHO membranes, mean ± SEM of 3-4 experiments, read-out: pKi hM5 (converted)

CC(C)(C)C(=O)OCOP(=O)(COCCn1cnc2c(N)ncnc21)OCOC(=O)C(C)(C)C [adefovir dipivoxil]
logP [1]: 1.5

COCCCOc1cc(C[C@@H](C[C@H](N)[C@@H](O)C[C@H](C(=O)NCC(C)(C)C(N)=O)C(C)C)C(C)C)ccc1OC [aliskiren]
Ki [2, 9]: > 100 µM | Ki [3, 10]: > 100 µM | logP [1]: 3.3 | pKi values (muscarinic subtypes overall) [4]: devoid of affinity for all muscarinic receptors

C=CCNc1nc(NCC=C)nc(N2CCN(C(c3ccc(F)cc3)c3ccc(F)cc3)CC2)n1 [almitrine]
logP [1]: 4.1

CC[N+](CC)(CCNC(=O)C(=O)NCC[N+](CC)(CC)Cc1ccccc1Cl)Cc1ccccc1Cl [ambenonium]
logP [1]: 2.3

CC(C)COCC(CN(Cc1ccccc1)c1ccccc1)N1CCCC1 (stereo not drawn) [bepridil]
logP [1]: 5.2

CCNC(=O)CCC/C=C\C[C@@H]1[C@@H](/C=C/[C@@H](O)CCc2ccccc2)[C@H](O)C[C@@H]1O [bimatoprost]
logP [1]: 3.4

COc1ccccc1OCCNCC(O)COc1cccc2[nH]c3ccccc3c12 (stereo not drawn) [carvedilol]
logP [1]: 3.1

CC(=O)N(O)CCCCCNC(=O)CCC(=O)N(O)CCCCCNC(=O)CCC(=O)N(O)CCCCCN [deferoxamine]
logP [1]: 0.9

CN(CCCCCCCCCCN(C)C(=O)Oc1cccc([N+](C)(C)C)c1)C(=O)Oc1cccc([N+](C)(C)C)c1 [demecarium]
logP [1]: 0.6

N=C(N)c1ccc(/N=N/Nc2ccc(C(=N)N)cc2)cc1 [diminazene]
Ki [5]: 4.79 µM | Ki [6]: 3.16 µM | Ki [2, 9]: 8.91 µM | Ki [7]: 5.62 µM | Ki [3, 10]: 4.79 µM | Kd [8]: 155 µM | pKi values (muscarinic subtypes overall) [4]: around 5

CCCCC[C@H](O)/C=C/[C@H]1[C@H](O)CC(=O)[C@@H]1C/C=C\CCCC(=O)O [dinoprostone]
logP [1]: 2.8

CC[N+](CC)(CC)CCOc1cccc(OCC[N+](CC)(CC)CC)c1OCC[N+](CC)(CC)CC [gallamine]
Ki [2, 9]: 0.794 µM | Ki [3, 10]: 2.19 µM

C[N+](C)(CCCCCC[N+](C)(C)C1c2ccccc2-c2ccccc21)C1c2ccccc2-c2ccccc21 [hexafluronium]
logP [1]: 1.8

CC#CCC(C)[C@H](O)/C=C/[C@@H]1[C@H]2C/C(=C/CCCC(=O)O)C[C@H]2C[C@H]1O (stereo partly drawn) [iloprost]
logP [1]: 4.2

CC(=O)N1CCN(c2ccc(OCC3COC(Cn4ccnc4)(c4ccc(Cl)cc4Cl)O3)cc2)CC1 (stereo not drawn) [ketoconazole]
Ki [2, 9]: 4.57 µM | Ki [3, 10]: 7.94 µM

CS(=O)(=O)CCNCc1ccc(-c2ccc3ncnc(Nc4ccc(OCc5cccc(F)c5)c(Cl)c4)c3c2)o1 [lapatinib]
logP [1]: 5.2

CC(C)OC(=O)CCC/C=C\C[C@@H]1[C@@H](CC[C@@H](O)CCc2ccccc2)[C@H](O)C[C@@H]1O [latanoprost]
logP [1]: 4.2

C/C(=C\C(=O)OCCCCCCCCC(=O)O)C[C@@H]1OC[C@H](C[C@@H]2O[C@H]2[C@@H](C)[C@H](C)O)[C@@H](O)[C@H]1O [mupirocin]
logP [1]: 2.2

CCCCCCCCCCC[C@@H](C[C@@H]1OC(=O)[C@H]1CCCCCC)OC(=O)[C@H](CC(C)C)NC=O [orlistat]
Ki [5]: > 100 µM | Ki [6]: > 100 µM | Ki [2, 9]: > 100 µM | Ki [7]: > 100 µM | Ki [3, 10]: > 100 µM | logP [1]: 7.5 | Log Kocc hM2 ([8]; Table 4, affinity estimate at [3H]-NMS-occupied receptor, one time point 20 min, mean ± SEM): completely inactive | Kd [8]: > 1000 µM

C[n+]1ccc(-c2cc[n+](C)cc2)cc1 [paraquat]
Ki [2]: > 100 µM | Ki [7]: 23.4 µM | Ki [3]: 14.8 µM

CC1=C(C/C=C(\C)CCC[C@H](C)CCC[C@H](C)CCCC(C)C)C(=O)c2ccccc2C1=O [phytonadione]
logP [1]: 9.3

O=c1[nH]c2ccccc2n1C1CCN(CCCC(c2ccc(F)cc2)c2ccc(F)cc2)CC1 [pimozide]
logP [1]: 6.3

OCc1cc(C(O)CNCCCCCCOCCCCc2ccccc2)ccc1O (stereo not drawn) [salmeterol]
Ki [5]: 12 µM | Ki [6]: 3.24 µM | Ki [2, 9]: 9.77 µM | Ki [3, 10]: 12.6 µM | logP [1]: 3.8

C[C@H](Cc1cc2c(c(C(N)=O)c1)N(CCCO)CC2)NCCOc1ccccc1OCC(F)(F)F [silodosin]
logP [1]: 3.0

CC(C)N1CCN(c2ccc(OCC3COC(Cn4cncn4)(c4ccc(Cl)cc4Cl)O3)cc2)CC1 (stereo not drawn) [terconazole]
logP [1]: 4.5

CC(C)(C)c1ccc(C(O)CCCN2CCC(C(O)(c3ccccc3)c3ccccc3)CC2)cc1 (stereo not drawn) [terfenadine]
Ki [2, 9]: 11 µM | logP [1]: 5.9

CC(C)OC(=O)CCC/C=C\C[C@@H]1[C@@H](/C=C/[C@@H](O)COc2cccc(C(F)(F)F)c2)[C@H](O)C[C@@H]1O [travoprost]
logP [1]: 4.6

N#Cc1ccc2[nH]cc(CCCCN3CCN(c4ccc5oc(C(N)=O)cc5c4)CC3)c2c1 [vilazodone]
logP [1]: 4.2

CCOC(=O)CN[C@@H](C(=O)N1CC[C@H]1C(=O)NCc1ccc(/C(N)=N\O)cc1)C1CCCCC1 [ximelagatran]
logP [1]: 1.4
